{
  "source": "patent US20230167406A1",
  "about": "“COMPOSITIONS AND METHODS OF PROMOTING MYELINATION” (The Children's Medical Center Corporation, priority 2020, published 2023)",
  "key": {"[1]": {"system": "OPCs distal to the optic nerve injury", "experiment": "TNFα inhibitor treatment after optic nerve injury (BrdU/CC1/Olig2 staining, lineage reporter mice)", "format": "in vivo, mouse", "from_the_text": "The morphology is very distinct from other treatments, such as GPR17 antagonist treatment (FIG. 5E)."}, "[2]": {"system": "OPCs and their progenies in injured optic nerves", "experiment": "OPC lineage tracing (CC1/Oligo1 staining of RTM+ cells) in PDGFRα-CreER/iRTM mice after optic nerve crush", "format": "in vivo, mouse", "source_text": "To trace the progenies of OPCs, a different reporter mouse line was utilized, namely PDGFRα-CreER (Kang et al., Neuron 68, 668-681, 2010) crossed with Rosa26-STOP-Tomato mice, or PDGFRα-CreER/iRTM mice (Arenkiel et al., 2011). Upon tamoxifen administration, Cre expression is induced in PDGFRα^+ OPCs, leading to RTM expression not only in these OPCs but also their differentiated progenies. To monitor their differentiation, two well-documented markers were used, namely CC1 and Oligo1. CC1 is a marker for all differentiated cells from OPCs. The translocation of Oligo1 from the nucleus to the cytoplasm has been implicated as a hallmark of late differentiation into myelinating oligodendrocytes. Therefore, with these immunohistochemistry assessments, these cells could be separated into three stages: un-differentiated OPCs (CC1^− and nuclear Oligo1), early differentiated OPCs (CC1+ and nuclear Oligo1) and mature oligodendrocytes (CC1^+ and cytoplasmic Oligo1) (FIG. 111).\nImmediately prior to optic nerve crush, tamoxifen was injected into PDGFRα-CreER/iRTM mice in order to label pre-existing OPCs (Young et al., Neuron 77, 873-885, 2013). Then, the fate of labeled OPCs was examined by immunohistochemistry with anti-CC1 and anti-Oligo1 at 4 weeks after injury (FIG. 1I).\nAs the majority of OPC proliferation occurs in the first week after injury (FIG. 1), it was hypothesized that a delayed PLX3397 treatment at 2-4 weeks after injury could bypass their inhibition on proliferation, permitting assessment of its effects on OPC differentiation. To do this, a separate experiment was performed in which PLX3397 was administered from 2 to 4 weeks after injury in PDGFRα-CreER:iRTM mice as used in FIGS. 1G-1M, 3L.\nFor PDGFRα-CreER mice, Tamoxifen (100 mg/kg, p.o.) was administered for 5 days right before optic nerve crush. […] Pexidartinib (PLX 3397) was mixed in food chow at 290 mg/kg by LabDiet laboratory animal nutrition."}, "[3]": {"system": "regenerated axons in injured optic nerves", "experiment": "Electron microscopy of myelination of regenerated axons in injured optic nerves", "format": "in vivo, mouse", "settings": "4 weeks after injury; for regenerated axons that became myelinated: Montelukast dpi1-28 and/or PLX3397 dpi15-28", "procedure": "To do this, AAVs expressing osteopontin/IGF1/CNTF were injected into the vitreous bodies of PDGFRα-CreER:iRTM mice to activate the intrinsic regenerative ability of RGCs and optic nerve injury was performed in 2 weeks. These mice were then treated with Montelukast (for 4 weeks from dpi1 to dpi28) and/or PLX3397 (for two weeks during dpi 15-28).\nMice were perfused with 4% paraformaldehyde with 2.5% glutaraldehyde in 0.1 M sodium cacodylate buffer, pH 7.2. Optic nerves were dissected and fixed in the same fixative solution overnight. Samples were then processed by the Harvard EM core based on the following procedure: nerves were rinsed in PBS, postfixed in 1% OsO4 in PBS for 1 h, dehydrated in a graded ethanol series, infiltrated with propylene oxide, and embedded in Epon. Semithin sections were stained with toluidine blue, and ultrathin sections were stained with lead citrate. Ultrathin sections were taken under JEOL 1200EX-80 kV electron microscope. The number of myelinated axons per nerve was analyzed in ultrathin sections at magnification 3,000× to 20,000×."}, "[4]": {"system": "proliferating OPCs in injured optic nerves", "experiment": "In vivo compound screening for OPC differentiation (BrdU+/CC1+ cells) after optic nerve crush", "parameters": "species or system mouse", "settings": "wild type C57BL/6 mice; for pro-differentiation effect compared with the other screened compounds: 4 week treatment after optic nerve crush; for number of BrdU+ and CC1+ double positive cells (OPC differentiation) in injured optic nerves: compound once daily for 4 weeks from day 1 post optic nerve crush, BrdU daily days 4-10"}, "[5]": {"system": "activated microglia in injured optic nerves", "experiment": "Microglia depletion in injured optic nerves (CD68 immunoreactivity)", "format": "in vivo, mouse", "settings": "systemic application (food chow)", "from_the_text": "FIG. 3G comprises representative images of optic nerves, from adult mice 2 weeks after unilateral optic nerve crush injury and with or without PLX3397 treatment, stained with antibodies against CD68. Scale bar: 40 μm.\nFIG. 3H is a graph quantifying the CD68 immunoreactivity signal. […] mice per group. Scale bar: 40 μm. *, **, *** p<0.05, 0.01, 0.001, respectively.\n(§1) Thus, it appears that microglia activation is required for injury-induced OPC proliferation.\nFor PDGFRα-CreER mice, Tamoxifen (100 mg/kg, p.o.) was administered for 5 days right before optic nerve crush. For OPC proliferation assays, BrdU (100 mg/kg, i.p.) was injected at 3 hours before sample collection. […]\n(§2) Cryosections (12-μm thick) were permeabilized and blocked in blocking buffer (0.5% Triton X-100 and 5% normal goat serum in PBS) for 1 h at room temperature and overlaid with primary antibodies overnight at 4° C. […] For each biological sample, 3-5 sections of each optic nerve were imaged under 10× or 20×objectives for quantification. Positive cell numbers were then quantified manually using the Plugins/Analyze/Cell Counter function in ImageJ software. For fluorescent intensity analysis, the images were first converted to 8-bit depth in ImageJ software and then, the mean intensity value was calculated by the build-in function: Analyze/Measure."}, "[6]": {"system": "OPCs in injured optic nerves", "experiment": "OPC proliferation by BrdU/GFP/Olig2 labeling in PDGFRα-H2B-GFP mice", "format": "in vivo, mouse", "settings": "PLX3397 from 7 days before crush, examined 14 days after injury", "experimental": "FIG. 3I is a schematic of experiments to assess OPC proliferation with the treatment of PLX3397 (PLX) or its vehicle control (Vec) in PDGFRα-H2B-GFP mice. […]\nas §1\nFor PDGFRα-CreER mice, Tamoxifen (100 mg/kg, p.o.) was administered for 5 days right before optic nerve crush. For OPC proliferation assays, BrdU (100 mg/kg, i.p.) was injected at 3 hours before sample collection. For drug screening assays, BrdU was injected daily from day 4 to day 10 post optic nerve crush. Each compound or the corresponding Vehicle was administered once daily for 4 weeks started from day 1 post optic nerve crush (Table 2). […]\nas §2"}, "[7]": {"settings": "PDGFRα-CreER/iRTM mice, Montelukast treatment for 4 weeks"}, "[8]": {"settings": "PDGFRα-CreER:iRTM mice, delayed treatment from 2 to 4 weeks after injury"}},
  "note": "Entries after “also recorded” stand apart in the source; their conditions may differ. Counter-ions that a name gives are not always drawn.",
  "data": [
    {"smiles": "O=C1CCC(N2C(=O)c3ccccc3C2=O)C(=O)N1", "note": "(stereo not shown) [Thalidomide]", "values": [
      {"measurement": "differentiation of OPCs in lineage reporter mice", "setting": "[1]; PDGFRα-CreER/iRTM lineage reporter mice, 2 to 4 weeks post-injury", "result": "OPCs differentiated into mature myelinating oligodendrocytes"},
      {"measurement": "BrdU+/CC1+/Olig2+ cells distal to the injury", "setting": "[1]; administered from 2 weeks to 4 weeks post-injury", "result": "robust increase"}
    ]},
    {"smiles": "CC(C)(O)c1ccccc1CC[C@@H](SCC1(CC(=O)O)CC1)c1cccc(/C=C/c2ccc3ccc(Cl)cc3n2)c1", "note": "[Montelukast]", "values": [
      {"measurement": "proportion of CC1+RTM+ cells with nuclear, but not cytoplasmic, Oligo1 immunoreactivity", "setting": "[2]; [7]", "result": 77, "unit": "%"},
      {"measurement": "total RTM+ cell numbers", "setting": "[2]; [7]", "result": "increased"},
      {"measurement": "proportion of RFP+ (RTM+) cells that became CC1+", "setting": "[2]; PDGFRα-CreER/iRTM mice, Montelukast treatment for 4 weeks after optic nerve injury, 12% in vehicle-treated mice", "result": 64, "unit": "%"},
      {"measurement": "thickness of myelin structures", "setting": "[3]", "result": "much thinner than those after PLX treatment"},
      {"measurement": "regenerated axons that became myelinated", "setting": "[3]", "result": "about 20%"},
      {"measurement": "pro-differentiation effect compared with the other screened compounds", "setting": "[4]", "result": "strongest effect"},
      {"measurement": "pro-differentiation effect compared with the other screened compounds", "setting": "[4]; listed as montelukast", "result": "strongest"},
      {"measurement": "number of BrdU+ and CC1+ double positive cells (OPC differentiation) in injured optic nerves", "setting": "[4]", "result": "significantly increased"}
    ]},
    {"smiles": "CN1CCC[C@@H]1CCO[C@](C)(c1ccccc1)c1ccc(Cl)cc1.O=C(O)/C=C/C(=O)O", "note": "[clemastine, Clemastine fumarate]", "values": [
      {"measurement": "number of BrdU+ and CC1+ double positive cells (OPC differentiation) in injured optic nerves", "setting": "[4]", "result": "increased CC1^+ cells, albeit the increase did not reach statistical differences"}
    ]},
    {"smiles": "O=C(O)CCC(=O)O.O=C(O[C@H]1CN2CCC1CC2)N1CCc2ccccc2[C@@H]1c1ccccc1", "note": "[Solifenacin, Solifenacin succinate]", "values": [
      {"measurement": "number of BrdU+ and CC1+ double positive cells (OPC differentiation) in injured optic nerves", "setting": "[4]", "result": "significantly increased"},
      {"measurement": "number of BrdU+ and CC1+ double positive cells (OPC differentiation) in injured optic nerves", "setting": "[4]; listed as solifenacin", "result": "significantly increased OPC differentiation"}
    ]},
    {"smiles": "CN1C2CCC1CC(OC(c1ccccc1)c1ccccc1)C2", "note": "(stereo not shown) [benztropine mesylate, Benztropine mesylate]", "values": [
      {"measurement": "number of BrdU+ and CC1+ double positive cells (OPC differentiation) in injured optic nerves", "setting": "[4]", "result": "significantly increased"},
      {"measurement": "number of BrdU+ and CC1+ double positive cells (OPC differentiation) in injured optic nerves", "setting": "[4]; listed as benztropine", "result": "significantly increased OPC differentiation"}
    ]},
    {"smiles": "FC(F)(F)c1ccc(CNc2ccc(Cc3c[nH]c4ncc(Cl)cc34)cn2)cn1", "note": "[PLX3397, Pexidartinib]", "values": [
      {"measurement": "depletion of microglia in vivo (CD68)", "setting": "[5]", "result": "depleted; also recorded: specifically deplete microglia"},
      {"measurement": "CC1+ cells", "setting": "[2]; [8]", "result": "increased"},
      {"measurement": "proportion of CC1+RTM+ cells expressing cytoplasmic Oligo1", "setting": "[2]; [8]", "result": 78, "unit": "%"},
      {"measurement": "regenerated axons that became myelinated", "setting": "[3]", "result": "about 20%"},
      {"measurement": "total numbers of OPCs", "setting": "[6]", "result": "profoundly reduced"}
    ]},
    {"smiles": "O=C(Nc1cccc2c(=O)cc(-c3nn[nH]n3)oc12)c1ccc(OCCCCc2ccccc2)cc1", "note": "[Pranlukast]", "values": [
      {"measurement": "number of BrdU+ and CC1+ double positive cells (OPC differentiation) in injured optic nerves", "setting": "[4]", "result": "increased OPC differentiation but did not reach statistical significance"}
    ]},
    {"smiles": "C=C(c1ccc(C(=O)O)cc1)c1cc2c(cc1C)C(C)(C)CCC2(C)C", "note": "[Bexarotene]", "values": [
      {"measurement": "number of BrdU+ and CC1+ double positive cells (OPC differentiation) in injured optic nerves", "setting": "[4]", "result": "increased CC1^+ cells, albeit the increase did not reach statistical differences"}
    ]}
  ]
}
